Laboratory results from PubChem BioAssay (NCI).
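48-hour exposure; five concentrations; linearly interpolated endpoints. Here, GI50 denotes the concentration required for 50% inhibition of growth. TGI: concentration producing complete growth inhibition.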 *1 amine or outer side, *2 acyl side, *3 side chain or, on linkers, in order; H or OH if unused. Where a SMILES comes first, the peptide text is derived from it. Bridges are numbered along the chain shown (N, C = ends). [ ]: non-standard residue; d: D form. The star is where a group is joined. Phe(3-Me) = Cc1cccc(C[C@H](N)C(=O)O)c1; NH(4-Cl-2-F-phenyl) = Fc1cc(Cl)ccc1N*; Pro(4R-Me) = C[C@H]1CN[C@H](C(=O)O)C1; Hyp = O=C(O)[C@@H]1C[C@@H](O)CN1; aThr = C[C@H](O)[C@H](N)C(=O)O; Pip = O=C(O)[C@@H]1CCCCN1; CO = O=C([*:1])[*:2]

Tests used:
Assay in all cases: NCI anticancer screen, dose series, 48 h
[1] = tested on: COLO 205 colon
[2] = tested on: DU-145 prostate
[3] = tested on: M14 melanoma
[4] = tested on: NCI-H23 lung
[5] = tested on: OVCAR-3 ovarian
[6] = tested on: OVCAR-8 ovarian
[7] = tested on: RPMI-8226 leukemia
[8] = tested on: SK-MEL-2 melanoma
[9] = tested on: SN12C renal
[10] = tested on: SNB-75 CNS

Compound COc1ccc(C(=O)c2cc(OC)c(OC)c(OC)c2)cc1O has a GI50 [1] of 1360 nM, a TGI [1] of 13.3 µM and a GI50 [2] of 38.7 nM. For the same compound, the TGI [2] was > 100 µM, the GI50 [3] was < 10 nM and the TGI [3] was > 100 µM. The GI50 [4] was 55 nM, the TGI [4] was > 100 µM and the GI50 [5] was 20.7 nM. For the same compound, the TGI [5] was 0.0511 µM, the GI50 [6] was 42.7 nM and the TGI [6] was > 100 µM. For the same compound, the GI50 [7] was 34.2 nM, the TGI [7] was > 64.9 µM and the GI50 [8] was 0.238 µM. The TGI [8] was > 100 µM, the GI50 [9] was 66.8 nM and the TGI [9] was > 100 µM. The GI50 [10] was < 10 nM and the TGI [10] was > 100 µM.
In the case of C=C1C(=O)O[C@@H]2C[C@@H](C)[C@@H]3[C@@H](OC4OC(COC(C)=O)C(O)C(O)C4O)CC(=O)[C@@]3(C)C[C@H]12 (stereo partly drawn), the TGI [1] is reported as 1.88 µM, the TGI [2] is reported as 21.5 µM and the TGI [3] is reported as 2.85 µM. The TGI [4] was 25.7 µM, the TGI [5] was 3.46 µM and the TGI [6] was 3.7 µM. For the same compound, the TGI [7] was 8.53 µM, the TGI [8] was 20.7 µM and the TGI [9] was 3.51 µM. The TGI [10] was 15.3 µM.
For c1cncc(C(Nc2cccc3cccnc23)Nc2cccc3cccnc23)c1, the TGI [1] was > 100 µM, the TGI [2] was > 100 µM and the TGI [3] was > 100 µM. For the same compound, the TGI [4] was > 100 µM, the TGI [5] was > 100 µM and the TGI [6] was > 100 µM. The TGI [7] was > 100 µM, the TGI [8] was > 100 µM and the TGI [9] was > 100 µM. The TGI [10] was > 100 µM.
In the case of O=C(Nc1ccc(Nc2ccncc2)cc1)c1ccc(Nc2ccnc3ccc([N+](=O)[O-])cc23)cc1, the GI50 [1] is reported as > 100000 nM, the TGI [1] is reported as > 100 µM and the GI50 [2] is reported as > 100000 nM. For the same compound, the TGI [2] was > 100 µM, the GI50 [3] was > 100000 nM and the TGI [3] was > 100 µM. For the same compound, the GI50 [4] was > 100000 nM, the TGI [4] was > 100 µM and the GI50 [5] was 6350 nM. For the same compound, the TGI [5] was > 100 µM, the GI50 [6] was > 100000 nM and the TGI [6] was > 100 µM. For the same compound, the GI50 [7] was > 100000 nM, the TGI [7] was > 100 µM and the GI50 [8] was > 100 µM. For the same compound, the TGI [8] was > 100 µM, the GI50 [9] was > 100000 nM and the TGI [9] was > 100 µM. The GI50 [10] was > 100000 nM and the TGI [10] was > 100 µM.
COc1ccc(/C=C(\C#N)c2cc(OC)c3c(c2)OCO3)cc1 was tested, and the GI50 [1] was < 12.4 nM, the TGI [1] was 0.0521 µM and the GI50 [2] was 25.6 nM. The TGI [2] was 0.186 µM, the GI50 [4] was < 14.3 nM and the TGI [4] was 24.3 µM. The GI50 [5] was < 10 nM, the TGI [5] was < 0.0136 µM and the GI50 [6] was 26 nM. For the same compound, the TGI [6] was 34.5 µM, the GI50 [7] was 19 nM and the TGI [7] was 27 µM. The GI50 [8] was < 0.017 µM, the TGI [8] was 2.81 µM and the GI50 [9] was 58.3 nM. The TGI [9] was > 100 µM and the GI50 [10] was 10.2 nM.
With CNC1NC(=O)c2ccccc2N1Cc1ccc(F)cc1 (stereo not drawn) the TGI [1] was > 100 µM, the TGI [2] was > 100 µM and the TGI [3] was > 100 µM. The TGI [4] was > 100 µM, the TGI [5] was > 100 µM and the TGI [6] was > 100 µM. For the same compound, the TGI [7] was > 100 µM, the TGI [8] was > 100 µM and the TGI [9] was > 100 µM. For the same compound, the TGI [10] was > 100 µM.
For CCC(C)/C=C(C)/C=C/C(=O)c1c(O)c(-c2ccc(O)cc2)c[nH]c1=O (stereo not drawn), the GI50 [1] was 7200 nM, the TGI [1] was 19.5 µM and the GI50 [2] was 2870 nM. The TGI [2] was 11.1 µM, the GI50 [3] was 6580 nM and the TGI [3] was 19.7 µM. The GI50 [4] was 3620 nM, the TGI [4] was 17.6 µM and the GI50 [5] was 2790 nM. For the same compound, the TGI [5] was 9.33 µM, the GI50 [6] was 3120 nM and the TGI [6] was 13.9 µM. The GI50 [7] was 3450 nM, the TGI [7] was 17.6 µM and the GI50 [8] was 3.53 µM. The TGI [8] was 11 µM, the GI50 [9] was 3860 nM and the TGI [9] was 18.1 µM. It also gave a GI50 [10] of 3300 nM and a TGI [10] of 14.3 µM.
In the case of Cc1c(Cl)cccc1NC(=O)c1sc2nc3c(cc2c1N)CCCCCC3, the GI50 [1] is reported as 285 nM, the TGI [1] is reported as > 50 µM and the GI50 [2] is reported as 258 nM. For the same compound, the TGI [2] was > 50 µM, the GI50 [3] was 154 nM and the TGI [3] was > 50 µM. For the same compound, the GI50 [4] was 273 nM, the TGI [4] was > 50 µM and the GI50 [5] was 174 nM. The TGI [5] was 1.21 µM, the GI50 [6] was 286 nM and the TGI [6] was > 50 µM. For the same compound, the GI50 [7] was 166 nM, the TGI [7] was > 50 µM and the GI50 [8] was 0.196 µM. The TGI [8] was 24.2 µM, the GI50 [9] was 408 nM and the TGI [9] was > 50 µM.
With Cc1ccc(NC2=C(Sc3ccc(Cl)cc3)C(=O)N(Cc3ccccc3)C2=O)cc1Cl the GI50 [1] was 31900 nM, the TGI [1] was > 100 µM and the GI50 [2] was 3980 nM. For the same compound, the TGI [2] was 24.6 µM, the GI50 [3] was 3880 nM and the TGI [3] was 17.5 µM. It also gave a GI50 [4] of 13300 nM, a TGI [4] of 32.8 µM and a GI50 [5] of 2090 nM. The TGI [5] was 5.31 µM, the GI50 [6] was 3980 nM and the TGI [6] was 34.8 µM. It also gave a GI50 [7] of 12700 nM, a TGI [7] of 40.8 µM and a GI50 [8] of 13.2 µM. The TGI [8] was 33.3 µM, the GI50 [9] was 12300 nM and the TGI [9] was 29 µM. It also gave a GI50 [10] of 3920 nM and a TGI [10] of 19.4 µM.
In the case of O=C(O)c1ccc(NS(=O)(=O)c2cccc3cccnc23)cc1, the GI50 [1] is reported as > 100000 nM, the TGI [1] is reported as > 100 µM and the GI50 [2] is reported as > 100000 nM. The TGI [2] was > 100 µM, the GI50 [3] was > 100000 nM and the TGI [3] was > 100 µM. For the same compound, the GI50 [4] was > 100000 nM, the TGI [4] was > 100 µM and the GI50 [5] was > 100000 nM. The TGI [5] was > 100 µM, the GI50 [6] was > 100000 nM and the TGI [6] was > 100 µM. The GI50 [7] was > 100000 nM, the TGI [7] was > 100 µM and the GI50 [8] was > 100 µM. For the same compound, the TGI [8] was > 100 µM, the GI50 [9] was > 100000 nM and the TGI [9] was > 100 µM. For the same compound, the GI50 [10] was > 100000 nM and the TGI [10] was > 100 µM.
CCc1oc2ccccc2c1C(=O)c1cc(Br)c(O)c(Br)c1 was tested, and the TGI [1] was 40.6 µM, the TGI [2] was > 100 µM and the TGI [3] was 80.6 µM. The TGI [4] was 54.8 µM, the TGI [5] was 43.2 µM and the TGI [6] was > 100 µM. For the same compound, the TGI [7] was 75.5 µM, the TGI [8] was 45.3 µM and the TGI [9] was 67.3 µM. It also gave a TGI [10] of 48.6 µM.
For Cc1cccc(C[C@H](NC(=O)Nc2ccc(Cl)cc2F)C(=O)N[C@@H]2C(=O)N3C[C@H](O)C[C@H]3C(=O)N3CCCC[C@H]3C(=O)N[C@@H](C)C(=O)N3C[C@H](C)C[C@H]3C(=O)O[C@H]2C)c1 ({NH(4-Cl-2-F-phenyl)-CO}-[Phe(3-Me)][aThr][Hyp][Pip]A[Pro(4R-Me)]; ester 2-C), the GI50 [1] was 344 nM, the TGI [1] was 1.36 µM and the GI50 [2] was 511 nM. It also gave a TGI [2] of 9.84 µM, a GI50 [3] of 487 nM and a TGI [3] of 2.19 µM. The GI50 [4] was 551 nM, the TGI [4] was 3.72 µM and the GI50 [5] was 438 nM. For the same compound, the TGI [5] was 1.75 µM, the GI50 [6] was 435 nM and the TGI [6] was 15.6 µM. It also gave a GI50 [7] of 128 nM, a TGI [7] of 1.63 µM and a GI50 [8] of 0.635 µM. For the same compound, the TGI [8] was 2.37 µM, the GI50 [9] was 393 nM and the TGI [9] was 4.6 µM. It also gave a GI50 [10] of 544 nM and a TGI [10] of 4.8 µM.
C=C(CN1CCN(c2ccccc2F)CC1)c1ccc(C(=O)Nc2ccccc2N)cc1 was tested, and the GI50 [1] was 2670 nM, the TGI [1] was 11.1 µM and the GI50 [2] was 1600 nM. The TGI [2] was 6.06 µM, the GI50 [4] was 1870 nM and the TGI [4] was 8.88 µM. It also gave a GI50 [5] of 2140 nM, a TGI [5] of 7.82 µM and a GI50 [6] of 1920 nM. The TGI [6] was > 100 µM, the GI50 [7] was 1160 nM and the TGI [7] was 3.78 µM. For the same compound, the GI50 [8] was 8.5 µM, the TGI [8] was > 100 µM and the GI50 [9] was 1820 nM. It also gave a TGI [9] of 40.9 µM, a GI50 [10] of 2270 nM and a TGI [10] of 8.14 µM.
CCc1ccc(CCC(=O)Nc2ncc(Cc3ccccc3)s2)o1 was tested, and the GI50 [1] was 2280 nM, the TGI [1] was > 100 µM and the GI50 [2] was 4510 nM. The TGI [2] was > 100 µM, the GI50 [3] was 876 nM and the TGI [3] was > 100 µM. The GI50 [4] was 4470 nM, the TGI [4] was > 100 µM and the GI50 [5] was 2670 nM. The TGI [5] was 21.6 µM, the GI50 [6] was 4500 nM and the TGI [6] was > 100 µM. For the same compound, the GI50 [7] was 2610 nM, the TGI [7] was > 100 µM and the GI50 [8] was 5.42 µM. The TGI [8] was > 100 µM, the GI50 [9] was 4420 nM and the TGI [9] was > 100 µM. The GI50 [10] was 1240 nM and the TGI [10] was > 100 µM.
